Measurements as given in article PMC10307035, “Antiviral activity of singlet oxygen-photogenerating perylene compounds against SARS-CoV-2: Interaction with the viral envelope and photodynamic virion inactivation” (Virus Research, 2023).

Assays:
[1] = Spectrofluorometric analysis of interaction with liposomes; format: physicochemical; settings: for penetration into liposomal membranes (in words): EPC/Chol 70/30 mol% liposomes
[2] = Fluorescence quantum yield determination; format: physicochemical; settings: in DMSO, relative to rhodamin B
Method: The samples’ steady-state fluorescence characteristics were measured in L-format using a Chronos DFD Fluorescence spectrometer (ISS, USA) equipped with a 300 W Cermax xenon arc lamp (ISS, USA), a concave holographic grating monochromator, and a PMT detector. The required amount of each sample was diluted in DMSO and measured in a 1-cm quartz cuvette at a constant temperature of 25 °C. The resulting data were evaluated using Vinci software (ISS, USA) and correlated to the utilized optical configuration.
Absorption spectra were measured using a high-performance Specord S 600 diode spectrophotometer (Jena Analyst, DE). The required amount of each sample was diluted in DMSO, added to 1-cm quartz cuvette, and measured within the selected absorbance spectrum range, against pure DMSO as a blank, at a constant temperature of 25 °C. The results were evaluated using WinASPECT® software (Jena Analyst, DE).
Fluorescence quantum yield was determined following a previously described protocol ([Kozma et al., 2005]; [Magde et al., 1999]; [Williams et al., 1983]). The kinetics of the incorporation of compounds into liposome membrane models was determined using steady-state fluorescence spectroscopy at a constant excitation and emission wavelength, according to the corresponding sample excitation and emission maxima. We added 50 μL of LNP suspension to 0.1 mM of the analyte in PBS, and monitored the increase of fluorescence intensity over the time range from 0 to 1400s. The preparation and characterization of the liposomal suspension is described in the supporting information (Fig. S4).
1. Supplementary material and methods
1.1. Fluorescence quantum yield (QY) determination
The steady-state fluorescence and absorption data were used for quantum yield determination. QY was determined relative to a reference compound, rhodamin B. Absorbance in the range of 0.01–0.1 was used to calculate the QY. We plotted two calibration curves of integrated emission fluorescence intensity as a function of sample absorbance. […]

SARS-CoV-2 = test: Photodynamic inactivation of SARS-CoV-2 virions; format: cell-based; settings: for antiviral activity after blue light irradiation of virus-compound mixture: 465–480 nm, 30 mW/cm^2, 10 min, then 60 min at 37 °C in the dark, plaque assay
Method: Virus in DMEM (titer of 10^5 PFU/mL) was mixed with the compounds (0–10 µM) in a microtiter plate, in triplicate, and irradiated for 10 min at RT with LEDs (465–480 nm) having an approximate power density of 30 mW/cm^2 (device description in supplement). As a negative control, virus was incubated for 10 min in the dark at RT. Subsequently, both irradiated and non-irradiated virus samples were incubated in the dark at 37 °C for 60 min. All manipulation with the samples before and after this incubation, i.e., mixing the compound with the virus, pipetting into a microtiter plate, etc., were performed in daylight. Viral titers were determined by plaque assays (performed also in daylight) and expressed as PFU/mL, as previously described ([Stefanik et al., 2021]). To eliminate the influence of daylight on compound activity, the whole experiment, including all manipulation with samples, was performed in a dark room under red light. The virus sample was mixed with the indicated compounds at concentrations from 0 to 10 μM or 100 μM, incubated for 60 min at 37 °C and virus viability was evaluated using a plaque assay (Fig. 9A).

Vero cells [3] = test: Cytotoxicity assay (Cell Counting Kit-8) in Vero cells; format: cell-based, African Green Monkey; settings: 10 µM, 48 h
Method: (§1) To determine the overall cytotoxicity of the tested compounds, Vero cells were cultured for 24 h in 96-well plates to form a confluent monolayer, and then were treated with the tested compounds at concentrations of 2 and 10 µM. After 48 h of cultivation in the dark at 37 °C under 5% CO2, the cell culture medium was aspirated. The potential cytotoxicity of the tested perylene derivatives was determined based on cell viability using Cell Counting Kit-8 (Dojindo Molecular Technologies, Munich, Germany) according to the manufacturer's instructions. The cell viabilities of compound-treated Vero cells were compared with those of control DMSO-treated cells. We also used the above-described protocol to assess the cytotoxicity of the selected perylene antivirals, at concentrations ranging from 0 to 10 µM, in CaCo-2 and CRFK cells.

[4] = ROS generation rate / quantum yield, DPBF bleaching in methanol; format: physicochemical; settings: for φROS (ROS generation quantum yield): in methanol, DPBF trap, 450–470 nm illumination, riboflavin as reference
Description: The ROS generation rate was estimated using the spectrophotometric method, based on the absorption changes of 1,3-diphenylisobenzofuran (DPBF, Sigma Aldrich, Germany) in methanol solution. Irreversible oxidation of DPBF by singlet oxygen results in peroxide formation, and DPBF bleaching. When light of 400–450 nm was used as actinic, DPBF bleaching occurred without any photosensitizer (PS) in solution. Therefore, to study photosensitized ROS generation, we used a white MCWHLP1 LED (Thorlabs, USA) with filters to limit the radiation to the 450–470 nm range (5.5 mW/cm^2).
Spectrophotometric measurements were performed in a Qpod 2e (Quantum Northwest, USA) thermostated cuvette holder at 25 °C with magnetic stirring (500 rpm). Absorption spectra were recorded using a MayaPro spectrophotometer (Ocean Optics, USA) and a stabilized white light source with a SLS201L tungsten lamp (Thorlabs, USA). Illumination was uniform over the entire volume of the cuvette, to prevent artifacts associated with the diffusion of non-reacted components into the illuminated volume of the cuvette. In this case, the rate of irreversible bleaching of DPBF (412 nm) was the same under both continuous and pulsed irradiation with equal total irradiation time. Illumination was performed in a pulsed mode (Fig. S5A), with 1 s of illumination followed by 5 s of dark adaptation, during which the absorption spectrum of the PS-DPBF solution was recorded. Data processing was performed as previously described ([Gvozdev et al., 2020]).

[5] = ROS generation measurement with DMA trap in DMSO; format: physicochemical; settings: for ROS generation, DMA trap, under blue light: 465–480 nm, 30 mW/cm^2, 10 min
Method: ROS generation was also estimated using 9,10-dimethylanthracene (DMA), another specific fluorescent singlet oxygen trap, which forms nonfluorescent 9,10-dimethylanthracene endoperoxide after ROS-mediated DMA oxidation. Compounds (0, 0.1, 1, and 10 µM) in DMSO were mixed with DMA (0.5 µM), and these solutions were irradiated for 10 min at room temperature (RT) with light-emitting diodes (LED, 465–480 nm) having approximate power density of 30 mW/cm^2 (device description in Fig. S7). DMA fluorescence intensity was measured at ex/em wavelengths of 370/432 nm in the presence or absence of α-tocopherol (3 µg/mL) as an antioxidant. Singlet oxygen generation was accompanied by a decreased fluorescence signal of the DMA probe ([Zeng et al., 2020]).

Vero cells [6] = test: Light-induced cytotoxicity in Vero cells; format: cell-based, African Green Monkey; settings: 0–10 µM, 465–480 nm 10 min, then 24 h in the dark
Method: To determine the light-induced cytotoxicity of the tested compounds, Vero cells were cultured for 24 h in 96-well plates to form a confluent monolayer, and then were treated with the tested compounds at concentrations of 0 to 10 µM. Then, the compound-treated cells were irradiated for 10 min at RT with LEDs (465–480 nm) having an approximate power density of 30 mW/cm^2 (device description in Fig. S7). As a negative control, compound-treated cells were incubated for 10 min in the dark at RT. Subsequently, both irradiated and non-irradiated cell monolayers were incubated in the dark at 37 °C for 24 h. Then, the cell culture medium was aspirated and the potential cytotoxicity of the tested perylene derivatives was determined based on cell viability using Cell Counting Kit-8 (Dojindo Molecular Technologies, Munich, Germany) according to the manufacturer's instructions.

CRFK cells = test: Cytotoxicity assay (Cell Counting Kit-8) in CRFK cells; format: cell-based, Felis catus; settings: up to 10 µM
Method: as §1

[7] = test system: SARS-CoV-2 (Wuhan strain); test: Viral titer inhibition assay, SARS-CoV-2 in CaCo-2 cells; format: cell-based; settings: 0–10 µM
[8] = test system: feline infectious peritonitis virus (FIPV); format: cell-based, feline coronavirus (FCoV); settings: 0–10 µM
CaCo-2 cells = test: Cytotoxicity assay (Cell Counting Kit-8) in CaCo-2 cells; format: cell-based, human; settings: up to 10 µM
Method: as §1

[9] = set-up: method as in Magde et al., 1999; settings: Water; λ = 514 nm; ref Magde et al., 1999; cited from earlier work

Compound | penetration into liposomal membranes (in words) ([1]; 10 µM in PBS) | fluorescence quantum yield [2] [%] | antiviral activity after blue light irradiation of virus-compound mixture (SARS-CoV-2) | φROS (ROS generation quantum yield) [4] [%] | ROS generation, DMA trap, under blue light [5] | effect of blue light irradiation on cytotoxicity (Vero cells [6]) | further results
CN(C)c1ccc(C#Cc2ccc3c4cccc5cccc(c6cccc2c63)c54)cc1 [Compound 14] | slow and very gradual | 8 | viral titer decreased by less than an order of magnitude | 7.1 ± 0.2 | minimal photodynamic activities | no effect | solubility in water (in words) [1]: poorly soluble in water; fluorescence intensity after mixing with liposomes ([1]; at 540 nm, 10 µM in PBS): 10^3 CPS; cell viability (in words) (Vero cells [3]): moderately decreased cell viability; photodynamic activity (DPBF trap, in words) ([4]; methanol, 450–470 nm): minimal
O=C(O)c1ccc(-c2ccc3c4cccc5cccc(c6cccc2c63)c54)s1 [Compound 16] | penetrated the liposomal membranes very quickly and efficiently | 61 |  | 59.0 ± 1.8 |  |  | steady-state fluorescence signal after mixing with liposomes ([1]; at 520 nm, after 1400 s, 10 µM in PBS): about 10^5 CPS
O=C(NCCCCO)c1ccc(-c2ccc3c4cccc5cccc(c6cccc2c63)c54)s1 [Compound 17] |  |  | low-nanomolar | 59.0 ± 2.4 | significant bleaching | dramatically increased | tolerability by CRFK cells (CRFK cells): well-tolerated; anti-SARS-CoV-2 activity in CaCo-2 cells [7]: sub-micromolar; replication of FIPV in CRFK cells [8]: potently suppressed the replication; antiviral effect under red light only (SARS-CoV-2; 100 µM, dark room, red light, 60 min at 37 °C): no antiviral effect; antiviral activity under red light only (SARS-CoV-2; up to 10 µM, dark room, red light, 60 min at 37 °C): completely disappeared; tolerability by CaCo-2 cells (CaCo-2 cells): well-tolerated; ROS generation, DMA trap, in the dark or with α-tocopherol ([5]; 10 min, dark or α-tocopherol (3 µg/mL)): no/limited bleaching
CCN(CC)c1ccc2c(-c3ccccc3C(=O)O)c3ccc(=[N+](CC)CC)cc-3oc2c1.[Cl-] [rhodamin B] |  |  |  |  |  |  | QYr (fluorescence quantum yield of reference) [9]: 31%
